Data as given in patent publication US20200197533A1, “COMBINATION CANCER THERAPY USING CHIMERIC ANTIGEN RECEPTOR ENGINEERED NATURAL KILLER CELLS AS CHEMOTHERAPEUTIC DRUG CARRIERS” (priority 2017, published 2020).
Entries after “also recorded” stand apart in the source; their conditions may differ.

Tests used:
lymphoma cells = conditions: drug-loaded nanocapsules conjugated to murine T cells; cited from earlier work
T cell carriers = conditions: drug-loaded nanocapsules conjugated to murine T cells; cited from earlier work
SKOV3 cells = assay: Cell viability (XTT) assay with cMLV(PTX); format: cell-based; conditions: various concentrations of cMLV(PTX), compared with NK cells
Protocol: (§1) NK92 and SKOV3 cells were seeded in 96-well plates at 2×10^4 cells per well in 10% FBS-containing media and grown at 37° C. in the presence of 5% CO2 for 6 hours. Cells were incubated with various concentrations of cMLV (PTX) as previously described (Liu, Y, et al (2014). Codelivery of doxorubicin and paclitaxel by cross-linked multilamellar liposome enables synergistic antitumor activity. Mol Pharm 11: 1651-1661) and cell viability was assessed using the Cell Proliferation Kit II (XTT assay) from Roche Applied Science (Indianapolis, Ind.) according to the manufacturer's instructions. Cell viability percentage was determined by subtracting absorbance values obtained from media-only wells from the treated wells and then normalized by the control wells containing cells without drugs.

NK92 cells = assay: Cell viability (XTT) assay with cMLV(PTX); format: cell-based, human; conditions: various concentrations of cMLV(PTX)
Protocol: as §1

Structure (SMILES)	killing of lymphoma cells (lymphoma cells)	toxicity to the T cell carriers (T cell carriers)	cell viability of SKOV3 tumor cells exposed to PTX (SKOV3 cells)	cell viability of NK92 carrier cells exposed to PTX (NK92 cells)
CCc1c2c(nc3ccc(O)cc13)-c1cc3c(c(=O)n1C2)COC(=O)[C@]3(O)CC [SN-38]	effectively killed lymphoma cells	not toxic to the T cell carriers	–	–
CC(=O)O[C@H]1C(=O)[C@@]2(C)[C@H]([C@H](OC(=O)c3ccccc3)[C@]3(O)C[C@H](OC(=O)[C@H](O)[C@@H](NC(=O)c4ccccc4)c4ccccc4)C(C)=C1C3(C)C)[C@]1(OC(C)=O)CO[C@@H]1C[C@@H]2O [PTX, paclitaxel]	–	–	more sensitive to PTX; also recorded: can kill tumor cells	not NK92 cells
